In patent US7279175B2, “Stent coated with a sustained-release drug delivery and method for use thereof” (Psivida Inc., priority 2001, dated 2007):

Assays:
[1] = In vitro release from stents coated with 1:1 mixture of TA and 5FU without chemical linkage; assay type: physicochemical; details: mixture coating, 0.1M phosphate buffer pH 7.4, 37° C.
Protocol: Stents were coated with a mixture of TA and 5FU in a mole-ratio of 1 to 1 without chemical linkage. The release rate was determined in vitro by placing the coated stents in 0.1M phosphate buffer (pH 7.4) at 37° C. Samples of the buffer solution were periodically removed for analysis by HPLC, and the buffer was replaced to avoid any saturation effects.
Because of the hydrophilic nature of 5FU, this compound was released from the mixture coating much faster than from the codrug coating. Within 4 weeks, more than 95% of total 5FU was released. TA release from the drug mixture coating was much slower, with about 20% TA released over the first 6 weeks.

[2] = Release test from PVA-coated glass plates into phosphate buffer (HPLC); assay type: physicochemical; details: 0.1 M phosphate buffer pH 7.4, 37° C., intact plus constituents
[3] = Release test from silicone-coated glass plates into phosphate buffer (HPLC); details: silicone coating, up to day 6; detected plus hydrolyzed
Excerpt: Samples were taken daily, and the entire release media was replaced with fresh media at each sampling time. […] Again, the data represent both intact and constituents of the inventive compound.

Structure (SMILES): CC1(C)O[C@@H]2C[C@H]3[C@@H]4CCC5=CC(=O)C=C[C@]5(C)[C@@]4(F)[C@@H](O)C[C@]3(C)[C@]2(C(=O)CO)O1 [TA, triamcinolone acetonide]
- TA released ([1]; over the first 6 weeks): about 20%

Structure (SMILES): COc1ccc2cc(C(C)C(=O)OCn3cc(F)c(=O)[nH]c3=O)ccc2c1 (stereo not shown) [TC-112]
- release rate (slope of total cumulative release curve) [2]: 10 µg/day
- total TC-112 released [3]: 122.4 mg

Structure (SMILES): O=c1[nH]cc(F)c(=O)[nH]1 [5FU, 5-fluorouracil]
- total 5FU released ([1]; within 4 weeks): more than 95%
